{
  "source": "patent US12227534B2",
  "about": "“Method for preparing nicotinamide mononucleotide by using nicotinamide as raw material” (BONTAC BIO-ENGINEERING(SHENZHEN) CO., LTD., priority 2020, dated 2025)",
  "key": {"[1]": {"assay": "Long-term stability of nicotinamide ribose solution after pH adjustment with sodium bicarbonate", "assay_type": "physicochemical", "conditions": "2-4° C., storage time 45 days", "description": "(§1) The results of various parameters in the preparation of the intermediate product nicotinamide ribose solution are shown in Table 1 to Table 5."}, "[2]": {"assay": "Long-term stability of nicotinamide ribose solution after pH adjustment with hydrochloric acid", "assay_type": "physicochemical", "conditions": "storage temperature 0-4° C., storage time 45 days", "description": "as §1"}},
  "data": [
    {"substance": "nicotinamide ribose [nicotinamide ribose solution]", "values": [
      {"measurement": "Stability (degradation)", "setting": "[1]; pH 4 (sodium bicarbonate)", "value": 2.4, "unit": "%"},
      {"measurement": "Stability (degradation)", "setting": "[1]; pH 5 (sodium bicarbonate)", "value": 3.7, "unit": "%"},
      {"measurement": "Stability (degradation)", "setting": "[2]; pH 4 (hydrochloric acid)", "value": 1.3, "unit": "%"},
      {"measurement": "Stability (degradation)", "setting": "[2]; pH 5 (hydrochloric acid)", "value": 2.1, "unit": "%"}
    ]}
  ]
}
